Results: patent US5811398A, “Platelet aggregation inhibitors containing C-terminal aminergic side chain amino acid residues” (G. D. Searle & Co., priority 1995, dated 1998)

Test system: ADP-induced platelet aggregation in dog platelet-rich plasma (PRP)
Assay: In-Vitro Platelet Aggregation in PRP
Format: cell-based
Settings: aggregation induced by ADP (50 μm final concentration), 1 minute preincubation at 37° C.
Experimental: In-Vitro Platelet Aggregation in PRP
Healthy male or female dogs were fasted for 8 hours prior to drawing blood; then 30 ml whole blood was collected using a butterfly needle and 30 cc plastic syringe with 3 ml of 0.129M buffered sodium citrate (3.8%). The syringe was rotated carefully as blood was drawn to mix the citrate. Platelet-rich plasma (PRP) was prepared by centrifugation at 975×g for 3.17 minutes at room temperature, allowing the centrifuge to coast to a stop without braking. The PRP was removed from the blood with a plastic pipette and placed in a plastic capped, 50 ml Corning conical sterile centrifuge tube which was held at room temperature. Platelet poor plasma (PPP) was prepared by centrifuging the remaining blood at 2000×g for 15 minutes at room temperature allowing the centrifuge to coast to a stop without braking. The PRP was adjusted with PPP to a count of 2-3×10^8 platelets per ml. 400 μl of the PRP preparation and 50 μl of the compound to be tested or saline were preincubated for 1 minute at 37° C. in a BioData aggregometer (BioData, Horsham, Pa.). 50 μl of adenosine 5'-diphosphate (ADP) (50 μm final concentration) was added to the cuvettes and the aggregation was monitored for 1 minute. […] Results are calculated as follows: [formula]
The assay results for the compound of Example 1 and its median inhibitory concentration (IC50) is recorded in Table I.

N=C(N)c1ccc(NC(=O)CCC(=O)N[C@@H](CC(=O)O)C(=O)N[C@@H](CCCCN)C(=O)O)cc1 [Example 1, N-[4-[[4-(aminoiminomethyl)phenyl]amino]-1,4-dioxobutyl]-L-aspartyl]-L-lysine bistrifluoroacetate]
IC50: 180 nM
